Experiment [1] deals with Molt-4 human leukemic T-cells. As to the kind of experiment: In vitro photosensitizing efficacy in Molt-4 cells (MTT). Type of experiment: cell-based. Particulars: for effect of the free saccharide on PDT activity of the conjugate: Molt-4 cells incubated with galactose or lactose at various concentrations (0-100 μM). On the procedure:
Both cell lines are known to have some expression for Galectin-1 ([…]., Baum, L. G. and Brewer, C. F., Multivalent Protein-carbohydrate Interactions. A New […] for Super Molecular Assembly and Signal Transduction, Biochemistry, 40:3009-3015, 2001). The Molt-4 cells were grown in RPMI 1640 5% FCS (Fetal calf serum) in 100% humidity with 5% CO2. Cells were transferred to phenol red free (PRF) RPMI 1640 media with 1% FCS and plated at 2.5×10^4 cells/well. After 3 hours incubation in the dark, the cells were washed once with PBS and re-suspended in prf RPMI 1640 with 1% FCS. These cells were then illuminated with a […] Quartz Halogen Lamp with IR and bandpass dichroic filters to allow light between 400 nm-700 nm, at a dose rate of 16 mW/cm^2 at 695 nm. The RIF tumor cells were grown in alpha-DMEM with 10% fetal calf serum, penicillin and streptomycin. Cells were maintained in 5% CO2, 95% air and 100% humidity. […] After overnight incubation to allow the cells to attach the photosensitizers 14 were individually added at variable concentrations. After a 3 hr incubation in the dark at 37° C., the cells were washed once with PBS, then irradiated with the same light source as above (Molt-4 procedure), and the optimal cell kill was obtained at a concentration of 1.0 μM. After PDT the cells were washed once and placed in complete media and incubated for 48 hrs. […] Louis, Mo.) was added to each well (Kessel, D., Luo, Y., Photodynamic Therapy: A Mitochondrial Inducer of Apoptosis, Cell Death Differ. 6:28-35, 1999; MacDonald, I., Morgan, […]., Litchfield, D. J. Dougherty, T. J., Subcellular Localization Patterns and their Relationship to Photodynamic Activity of Pyropheophorbide-a Derivatives, Photochem. Photobiol., 70, 789-997, 1999). After 4 hr incubation at 37° C. the MTT+media were removed and 100 μl DMSO was added to solubilize the formazin crystals. The 96-well plate was read on a microtiter plate reader (Miles Inc. Titertek Multiscan Plus MK II) at an absorbance of 560 nm. The results were plotted as percent survival of the corresponding dark (drug no light) control for each compound tested. Each data point represents the mean from 3 separate experiments, and the error bars are the standard deviation. Each experiment was done with 5 replicate wells. […] The cells were then washed once with phosphate buffer saline (PBS), carbohydrate conjugates were then added, and the cells were again incubated for an additional 3 hrs. After treating with light, the cells were re-suspended in fresh media and incubated for 48 hrs. MTT was added to the cells and incubated for an additional 4 hrs. Dimethylsulfoxide (100 μl) was then added to each well to dissolve the formazin crystals. The plates were read on a 96 well plate reader at an absorbance of 560 nm. The data are in replicates of 6 wells and are normalized to control cells (light, no drug). In another set of experiments, a similar procedure was followed, except, the cells were not washed before the light treatment. […] Louis, Mo.) was added to the cells and incubated for an additional 4 hrs. Dimethylsulfoxide (100 μl) was then added to each well to dissolve the formazin crystals. The plates were read on a 96 well plate reader (Miles Inc. Titertek Multiscan Plus MK II) at an absorbance of 560 nm. The data are in replicates of 6 wells and are normalized to control cells (light, no drug).

The next experiment deals with Gal-1 (Homo sapiens, UniProt P09382). The experiment can be described thus: Gal-1 inhibition binding, indirect ELISA (Gal-1-HRP conjugate on asialofetuin-coated wells). As for the experimental part:
Cell. Biochem., 43, 43-57, 1990) to eliminate the thiol requirement for retention of carbohydrate-binding activity. Coupling of alkylated galaptin to Horseradish peroxidase (HRP) was carried out by a two-step glutaraldehyde procedure as described by Engvall (Engvall E., Enzyme Immunoassay ELISA and EMIT, Methods in Enzymology, 70, 419-439, 1980). The galactin-peroxidase conjugate was prepared in 50% glycerol-1% BSA and stored at -20° C. until use. The binding of the Gal-1 to photosensitizers with and without the galactose moiety was measured by an indirect ELISA method as described by Chen et al. […] The microtiter wells (Dynatech Laboratories, Chantilly, Va.) were coated with 2 μg asial fetuin (Sigma) in 100 μl of 0.1M sodium carbonate, 0.2% NaN3, pH 9.6 at 37° C. for 3h. The plates were tightly covered with parafilm and stored at 4° C. for use within three weeks. The optimal dilution for Gal-1HRP conjugate was determined by checker-board titration. For studying the effect of saccharides and their conjugates, 60 μl aliquots of diluted Gal-1-HRP conjugate containing 1.4 μg of Gal-1 were mixed separately in duplicate with 60 μl dilute buffer as well as serially diluted test compounds and incubated for 1 h at 37° C. A 100 μl aliquot was transferred to the microtiter wells, which had been coated with […] Fetuin, blocked and washed. The plates were then incubated for 1 h at 37° C. followed by color development with ABTS (Kirkegaard & Perry lab. Gaithersburg, Md.) and reading at 405 nm on an ELISA reader.
(In general: In an ELISA, binding on a coated surface is turned into a signal by an enzyme label.)

In experiment [2] the test system is radiation induced fibrosarcoma (RIF) tumor cell. As to the kind of experiment: In vitro photosensitizing activity in RIF tumor cells (MTT). Type of experiment: cell-based. Conditions: 2.0 μM, light dose of 4 J/cm2. On the procedure:
Both cell lines are known to have some expression for Galectin-1 (Sacchettini, J. C., Baum, L. G. and Brewer, C. F., Multivalent Protein-carbohydrate Interactions. A New Paradiagm for Super Molecular Assembly and Signal Transduction, Biochemistry, 40:3009-3015, 2001). The Molt-4 cells were grown in RPMI 1640 5% FCS (Fetal calf serum) in 100% humidity with 5% CO2. Cells were transferred to phenol red free (PRF) RPMI 1640 media with 1% FCS and plated at 2.5×10^4 cells/well. After 3 hours incubation in the dark, the cells were washed once with PBS and re-suspended in prf RPMI 1640 with 1% FCS. These cells were then illuminated with a 1000W Quartz Halogen Lamp with IR and bandpass dichroic filters to allow light between 400 nm-700 nm, at a dose rate of 16 mW/cm^2 at 695 nm. The RIF tumor cells were grown in alpha-DMEM with 10% fetal calf serum, penicillin and streptomycin. Cells were maintained in 5% CO2, 95% air and 100% humidity. For determining the PDT efficacy, these cells were plated in 96-well plates and a density of 1×10^4 cells well in complete media. After overnight incubation to allow the cells to attach the photosensitizers 14 were individually added at variable concentrations. After a 3 hr incubation in the dark at 37° C., the cells were washed once with PBS, then irradiated with the same light source as above (Molt-4 procedure), and the optimal cell kill was obtained at a concentration of 1.0 μM. After PDT the cells were washed once and placed in complete media and incubated for 48 hrs. […] The 96-well plate was read on a microtiter plate reader (Miles Inc. Titertek Multiscan Plus MK II) at an absorbance of 560 nm. […]

A word on the inhibition: it is the drop in the measured response relative to a control, in per cent. High values mean strong suppression, low ones little suppression.

Sequence of Gal-1 (P09382 whole entry): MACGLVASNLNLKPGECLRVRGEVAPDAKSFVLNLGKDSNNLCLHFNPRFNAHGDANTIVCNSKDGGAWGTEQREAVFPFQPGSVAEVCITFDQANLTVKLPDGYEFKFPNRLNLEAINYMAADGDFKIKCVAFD

With `C=C(C=CCO[C@@H]1O[C@H](CO)[C@H](O)[C@H](O)[C@H]1O)CN1C(=O)c2c3nc(cc4[nH]c(cc5nc(cc6[nH]c2c(c6C)C1=O)C(CC)=C5C)c(CC)c4C)C(C)C3CCC(=O)OC` (mixture of isomers) [2a, Galactose-Chlorin conjugate Joined with diene linkage], the “in vitro photosensitizing efficacy (in words)” value in experiment [1] (Molt-4 cells, 2.0 μM, 2a, 3a compared to 1a, 4a compared to 2a and 3a) is “significant increases in photosensitizing efficacy”. Also, the “effect of free lactose on PDT efficacy of the photosensitizer” value in experiment [1] (Molt-4 cells, photosensitizer with lactose in a ratio of 1:100, without washing) is recorded as “complete inhibition in PDT efficacy”. Further, the IC50 at Gal-1 (ELISA, read-out: I50, inhibition of Gal-1 binding) amounted to 114 µM. Also, the cell kill in experiment [2] is listed as 100%.

On to `O=C[C@H](O)[C@@H](O)[C@@H](O)[C@H](O)CO` [galactose, reference compound], for which the “effect of the free saccharide on PDT activity of the conjugate” value in experiment [1] is “did not result in any inhibition in PDT activity”. For the same compound, at Gal-1 (at 450 μM), the inhibition at 450 µM amounted to 3% and the “inhibition of Gal-1 binding” value came to 3.29%.

As to `OC[C@H]1O[C@@H](O[C@H]2[C@H](O)[C@@H](O)C(O)O[C@@H]2CO)[C@H](O)[C@@H](O)[C@H]1O` (some centres unmarked) [lactose, reference compound], the “effect of the free saccharide on PDT activity of the conjugate” value in experiment [1] is listed as “significant decrease in photosensitizing efficacy”.

Values taken from patent US6849607B2, “Galectin recognized photosensitizers for photodynamic therapy” (Health Research, Inc., priority 2001, dated 2005).
